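The compound was tested at five concentrations on cells cultured in 96-well plates, with a 48-hour exposure period. Here, GI50 denotes the concentration required for 50% inhibition of growth.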 Calls of active or inactive are those of the source. Cut-off read from the data, not from the text of the source: active = GI50 up to about 1.1 µM and inactive = higher.
Assays:
Assay in all cases: inhibition of tumour cell growth, NCI panel, 48 h
IGROV-1 = test system: IGROV-1
SNB-19 = test system: SNB-19
UACC-62 = test system: UACC-62
EKVX = test system: EKVX
HL-60 = test system: HL-60
OVCAR-5 = test system: OVCAR-5
SK-OV-3 = test system: SK-OV-3
SR = test system: SR
SK-MEL-5 = test system: SK-MEL-5
A549 = test system: A549
LOX IMVI = test system: LOX IMVI
KM12 = test system: KM12
SK-MEL-2 = test system: SK-MEL-2
786-0 = test system: 786-0
RXF 393 = test system: RXF 393
DU-145 = test system: DU-145
T47D = test system: T47D
NCI/ADR-RES = test system: NCI/ADR-RES
MCF7 = test system: MCF7

Measured: GI50

O=C(c1ccc(Cl)cc1)c1ccc(OCC(=O)N2CCN(c3ccccc3)CC2)cc1
inactive: IGROV-1 > 100 µM | SNB-19 > 100 µM | UACC-62 > 100 µM | EKVX > 100 µM | HL-60 > 100 µM | OVCAR-5 > 100 µM | SK-OV-3 > 100 µM | SR 84.5 µM | SK-MEL-5 41.6 µM | A549 > 100 µM | LOX IMVI > 100 µM | KM12 > 100 µM | SK-MEL-2 > 100 µM | 786-0 > 100 µM | RXF 393 > 100 µM

Cc1n[nH]c(=O)n1/N=C/c1ccc(F)cc1
inactive: SNB-19 > 100 µM | UACC-62 > 100 µM | DU-145 > 100 µM | T47D > 100 µM | EKVX 92.9 µM | OVCAR-5 > 100 µM | SK-OV-3 > 100 µM | SR > 100 µM | A549 > 100 µM | KM12 > 100 µM | NCI/ADR-RES > 100 µM | 786-0 > 100 µM | RXF 393 40.6 µM

COC(=O)C(=O)c1cc2ccccc2n1S(=O)(=O)c1ccccc1
inactive: IGROV-1 > 100 µM | SNB-19 > 100 µM | UACC-62 > 100 µM | DU-145 > 100 µM | T47D > 100 µM | EKVX > 100 µM | HL-60 > 100 µM | OVCAR-5 > 100 µM | SK-OV-3 > 100 µM | SR > 100 µM | SK-MEL-5 > 100 µM | A549 > 100 µM | LOX IMVI > 100 µM | MCF7 > 100 µM | KM12 > 100 µM | NCI/ADR-RES > 100 µM | SK-MEL-2 > 100 µM | 786-0 > 100 µM | RXF 393 > 100 µM

CCOC(=O)NC(=O)c1cn(CCN2CCN(C(=O)NCCCCCCNC(=O)N3CCN(CCn4cc(C(=O)NC(=O)OCC)c(=O)[nH]c4=O)CC3)CC2)c(=O)[nH]c1=O
inactive: IGROV-1 > 100 µM | SNB-19 > 100 µM | UACC-62 > 100 µM | EKVX > 100 µM | HL-60 > 100 µM | OVCAR-5 > 100 µM | SK-OV-3 > 100 µM | SR > 100 µM | SK-MEL-5 > 100 µM | A549 > 100 µM | LOX IMVI > 100 µM | KM12 > 100 µM | SK-MEL-2 > 100 µM | 786-0 > 100 µM | RXF 393 > 100 µM

O=C1C=C(c2c(O)ccc3ccccc23)c2cc(O)ccc2C1=O
inactive: IGROV-1 13.7 µM | SNB-19 17.5 µM | UACC-62 4.43 µM | EKVX 21.2 µM | HL-60 2.02 µM | OVCAR-5 21.1 µM | SK-OV-3 23.5 µM | SR 6.59 µM | SK-MEL-5 15.1 µM | A549 18.2 µM | LOX IMVI 11.5 µM | KM12 16.1 µM | SK-MEL-2 20.1 µM | 786-0 18.7 µM | RXF 393 14.6 µM

COc1ccc(NS(=O)(=O)c2ccc(/N=C3\C=C(Nc4ccc(S(=O)(=O)Nc5ccc(OC)nn5)cc4)C(=O)c4ccccc43)cc2)nn1
inactive: IGROV-1 23.9 µM | SNB-19 18.8 µM | UACC-62 18.6 µM | EKVX 24.8 µM | HL-60 > 100 µM | OVCAR-5 19.1 µM | SK-OV-3 18.1 µM | SR 83.6 µM | SK-MEL-5 20.4 µM | A549 17.9 µM | LOX IMVI 16.7 µM | KM12 16.7 µM | SK-MEL-2 16.9 µM | 786-0 17.8 µM | RXF 393 18.4 µM

O=C(/C=C1\Nc2ccccc2N\C1=C\C(=O)c1ccc(Cl)cc1)c1ccccc1
inactive: IGROV-1 > 100 µM | SNB-19 94.4 µM | UACC-62 > 100 µM | DU-145 > 100 µM | T47D 16 µM | EKVX > 100 µM | OVCAR-5 64 µM | SK-OV-3 70 µM | SR 20.6 µM | SK-MEL-5 > 100 µM | A549 53 µM | LOX IMVI 33.3 µM | MCF7 38.7 µM | KM12 64.4 µM | NCI/ADR-RES > 100 µM | SK-MEL-2 > 100 µM | 786-0 26 µM | RXF 393 70.1 µM

CC1CC[C@@H](C(C)C)[C@H](Oc2nnc(C3OC(CO)C(O)C3O)o2)C1 (stereo partly specified)
inactive: SNB-19 > 100 µM | UACC-62 > 100 µM | DU-145 > 100 µM | T47D > 100 µM | EKVX > 100 µM | HL-60 > 100 µM | OVCAR-5 > 100 µM | SK-OV-3 > 100 µM | SK-MEL-5 > 100 µM | A549 > 100 µM | LOX IMVI > 100 µM | MCF7 > 100 µM | KM12 > 100 µM | NCI/ADR-RES > 100 µM | SK-MEL-2 > 100 µM | 786-0 > 100 µM | RXF 393 > 100 µM

COC(=O)c1sc2ncc3c(c2c1N)CCCCCC3
inactive: IGROV-1 > 100 µM | SNB-19 > 100 µM | UACC-62 > 100 µM | DU-145 > 100 µM | T47D > 100 µM | EKVX > 100 µM | OVCAR-5 > 100 µM | SK-OV-3 > 100 µM | SR > 100 µM | SK-MEL-5 > 100 µM | A549 > 100 µM | LOX IMVI > 100 µM | MCF7 > 100 µM | KM12 > 100 µM | NCI/ADR-RES > 100 µM | SK-MEL-2 > 100 µM | 786-0 > 100 µM | RXF 393 > 100 µM

CS/C(=N\C(=S)Nc1ccccc1)Nc1ccccc1
inactive: IGROV-1 16.4 µM | SNB-19 21.7 µM | UACC-62 4.58 µM | EKVX > 10 µM | HL-60 10.6 µM | OVCAR-5 23.6 µM | SK-OV-3 27 µM | SR 15.4 µM | SK-MEL-5 6.01 µM | A549 16.5 µM | LOX IMVI 16.7 µM | KM12 25.6 µM | SK-MEL-2 15.5 µM | 786-0 > 10 µM | RXF 393 15.2 µM

Cc1ccc(Cc2nn(C)c(=O)n2N)cc1
inactive: IGROV-1 > 100 µM | SNB-19 > 100 µM | UACC-62 > 100 µM | DU-145 > 100 µM | T47D > 100 µM | EKVX > 100 µM | OVCAR-5 > 100 µM | SK-OV-3 > 100 µM | SK-MEL-5 > 100 µM | A549 > 100 µM | LOX IMVI > 100 µM | MCF7 > 100 µM | KM12 > 100 µM | NCI/ADR-RES > 100 µM | SK-MEL-2 > 100 µM | 786-0 > 100 µM

CC1NOC(=O)C1/N=N/c1cccc(Cl)c1 (stereo unspecified)
inactive: IGROV-1 40.8 µM | SNB-19 37.7 µM | UACC-62 34.6 µM | EKVX 37.5 µM | HL-60 18.4 µM | OVCAR-5 47.5 µM | SK-OV-3 28.8 µM | SR 21.2 µM | SK-MEL-5 19.9 µM | A549 33.2 µM | LOX IMVI 28.8 µM | KM12 40.7 µM | SK-MEL-2 16.5 µM | 786-0 30.2 µM | RXF 393 22.8 µM
